This assay relates to HBV. In words: HBV-DNA antiviral assay using HepG2.117 cells. The class given is cell-based, genotype D HBV. Particulars: Hepatitis B virus, 72 h, intracellular HBV DNA by qPCR, 3 days incubation. In outline:
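HepG2.117 cells (genotype D HBV, Tet-off) seeded without doxycycline and treated for 3 days at 9 concentrations (4-fold dilutions) in 2% DMSO. Intracellular HBV DNA measured by qPCR against a standard curve, with viability from ATPlite run in parallel. EC50, EC90 and CC50 fitted relative to DMSO controls.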

The structures appear in SMILES notation.

Regarding `CNC(=O)c1ccc(-n2c(=O)c3c(n4ncc(Cc5ccc(OC)cc5F)c24)CN(C(=O)c2ccc(Br)c(Cl)c2)CC3)cc1` [Compound 87, 4-[12-(4-bromo-3-chloro-benzoyl)-5-[(2-fluoro-4-methoxy-phenyl)methyl]-8-oxo-2,3,7,12-tetrazatricyclo [7.4.0.0 2,6]trideca-1(9),3,5-trien-7-yl]-N-methyl-benzamide], the EC50 was no more than 100 nM.

With `NC(=O)c1ccc(-n2c(=O)c3c(n4ncc(Cc5ccccc5)c24)CN(C(=O)c2ccc(Br)c(Cl)c2)CC3)cc1` [Compound 75, 4-[5-benzyl-12-(4-bromo-3-chloro-benzoyl)-8-oxo-2,3,7,12-tetrazatricyclo [7.4.0.0 2,6]trideca-1(9),3,5-trien-7-yl] benzamide], the EC50 was 500 to 5000 nM.

The term EC50 denotes the concentration giving half of the maximal effect.

The values are drawn from patent US11136321B2, “Tricyclic compounds” (ALIGOS THERAPEUTICS, INC., priority 2019, dated 2021).
